Measurements reported in ChEMBL document CHEMBL5346969 (J Med Chem, 2023).
The source made the active and inactive calls. No cut-off for these calls is given here.

Key:
MDA-MB-231 [1] = test: Induction of ferroptosis-mediated morphological changes in human MDA-MB-231 cells assessed as decreased or absence of mitochondrial crests at 20 nM incubated for 6 hrs by TEM analysis; assay type: functional, cell-based
MDA-MB-231 [2] = test: Induction of ferroptosis in human MDA-MB-231 cells assessed as cell viability at 1 uM incubated for 72 hrs in presence of ferroptosis inhibitor, ferrostatin-1 by MTT assay; assay type: functional, cell-based
MDA-MB-231 [3] = test: Induction of ferroptosis in human MDA-MB-231 cells assessed as cell viability at 1 uM incubated for 72 hrs in presence of deferoxamine by MTT assay; assay type: functional, cell-based
MDA-MB-468 [4] = test: Antiproliferative activity against human MDA-MB-468 cells assessed as inhibition of cell viability incubated for 72 hrs by CCK-8 assay; assay type: functional, cell-based; conditions: MDA-MB-468, 72 h
[5] = Toxicity in immunodeficient BALB/c mouse xenografted with human MDA-MB-231 cells assessed as body weight change at 5 to 20 mg/kg, ip for 21 days; assay type: organism-based; conditions: in vivo, 504 h, dose 5-20 mg/kg, time 21 day
MDA-MB-231 [6] = test: Induction of ferroptosis in human MDA-MB-231 cells assessed as cell viability incubated for 72 hrs in presence of apoptosis inhibitor, Z-VAD-FMK by MTT assay; assay type: functional, cell-based; conditions: MDA-MB-231, 72 h
MDA-MB-231 [7] = test: Induction of ferroptosis in human MDA-MB-231 cells with assessed as decrease in GPX4 protein expression level at 5 to 20 nM incubated for 8 hrs by Western blot analysis; assay type: functional, cell-based; conditions: dose 5-20 nM
A549 = test: Antiproliferative activity against human A549 cells assessed as inhibition of cell viability at 1 uM incubated for 72 hrs by MTT assay; assay type: functional, cell-based
MDA-MB-231 [8] = test: Induction of ferroptosis in human MDA-MB-231 cells assessed as cell viability incubated for 72 hrs in presence of autophagy inhibitor, 3-MA by MTT assay; assay type: functional, cell-based; conditions: MDA-MB-231, 72 h
MDA-MB-231 [9] = test: Induction of ferroptosis in human MDA-MB-231 cells with assessed as change in GPX4 mRNA expression level at 5 to 20 nM incubated for 8 hrs by qRT-PCR analysis; assay type: functional, cell-based; conditions: dose 5-20 nM
BT-549 = test: Antiproliferative activity against human BT-549 cells assessed as inhibition of cell viability incubated for 72 hrs by MTT assay; assay type: functional, cell-based; conditions: BT-549, 72 h
MDA-MB-231 [10] = test: Antitumor activity against human MDA-MB-231 cells xenografted in immunodeficient BALB/c mouse assessed as tumor growth inhibition at 5 mg/kg,ip for 21 days consecutively every day; assay type: functional; conditions: MDA-MB-231, 504 h, time 21 day, read-out: TGI
[11] = Toxicity in immunodeficient BALB/c mouse assessed as change in BUN level at 20 mg/kg, ip for 14 days by biochemical analysis; assay type: organism-based; conditions: in vivo, 336 h, time 14 day
MDA-MB-231 [12] = test: Inhibition of colony formation in human MDA-MB-231 cells at 20 nM incubated for 14 days by crystal violet staining based assay; assay type: functional, cell-based; conditions: time 14.0 day
MDA-MB-231 [13] = test: Induction of ferroptosis in human MDA-MB-231 cells with assessed as decrease in xCT protein expression level at 5 to 20 nM incubated for 8 hrs by Western blot analysis; assay type: functional, cell-based; conditions: dose 5-20 nM
MDA-MB-468 [14] = test: Antiproliferative activity against human MDA-MB-468 cells assessed as inhibition of cell viability at 1 uM incubated for 72 hrs by CCK-8 assay; assay type: functional, cell-based
MDA-MB-231 [15] = test: Antiproliferative activity against human MDA-MB-231 cells assessed as inhibition of cell viability at 1 uM incubated for 72 hrs by MTT assay; assay type: functional, cell-based
[16] = Metabolic stability in human liver microsomes assessed as half life at 1 uM incubated upto 60 mins in presence of NADPH by LC-MS/MS analysis; assay type: ADME, Microsome
[17] = Toxicity in immunodeficient BALB/c mouse xenografted with human MDA-MB-231 cells assessed as morphological changes in kidney at 20 mg/kg, ip for 21 days by H and E staining based microscopy; assay type: organism-based; conditions: in vivo, 504 h, time 21 day
MDA-MB-231 [18] = test: Induction of ferroptosis in human MDA-MB-231 cells with assessed as change in FTH1 protein expression level at 5 to 20 nM incubated for 8 hrs in presence of ferroptosis inhibitor, ferrostatin-1 by Western blot analysis; assay type: functional, cell-based; conditions: dose 5-20 nM
MDA-MB-231 [19] = test: Inhibition of colony formation in human MDA-MB-231 cells at 5 to 20 nM incubated for 14 days by crystal violet staining based assay; assay type: functional, cell-based; conditions: dose 5-20 nM, time 14.0 day
MDA-MB-231 [20] = test: Induction of ferroptosis in human MDA-MB-231 cells with assessed as increase in ACSL4 protein expression level at 5 to 20 nM incubated for 8 hrs by Western blot analysis; assay type: functional, cell-based; conditions: dose 5-20 nM
MDA-MB-231 [21] = test: Induction of ferroptosis in human MDA-MB-231 cells assessed as cell viability at 1 uM incubated for 72 hrs in presence of N-acetyl-L-cysteine by MTT assay; assay type: functional, cell-based
MDA-MB-231 [22] = test: Induction of ferroptosis in human MDA-MB-231 cells assessed as increase in intracellular lipid peroxidase by measuring MDA content at 5 to 20 nM incubated for 8 hrs by C11-BODIPY-581/591 staining based flow cytometry analysis; assay type: functional, cell-based; conditions: dose 5-20 nM
MDA-MB-231 [23] = test: Induction of ferroptosis in human MDA-MB-231 cells assessed as induction of lipid peroxidase accumulation at 5 to 20 nM incubated for 8 hrs by C11-BODIPY-581/591 staining based flow cytometry analysis; assay type: functional, cell-based; conditions: dose 5-20 nM
MCF7 = test: Antiproliferative activity against human MCF7 cells assessed as inhibition of cell viability at 1 uM incubated for 72 hrs by MTT assay; assay type: functional, cell-based
[24] = Toxicity in immunodeficient BALB/c mouse assessed as change in CREA level at 20 mg/kg, ip for 14 days by biochemical analysis; assay type: organism-based; conditions: in vivo, 336 h, time 14 day
Hep 3B2 = test: Antiproliferative activity against human Hep3B cells assessed as inhibition of cell viability at 1 uM incubated for 72 hrs by MTT assay; assay type: functional, cell-based
MDA-MB-231 [25] = test: Antitumor activity against human MDA-MB-231 cells xenografted in immunodeficient BALB/c mouse assessed as tumor growth inhibition at 10 mg/kg,ip for 21 days consecutively every day; assay type: functional; conditions: MDA-MB-231, 504 h, time 21 day, read-out: TGI
[26] = molecular target: T1, Phospholipid hydroperoxide glutathione peroxidase GPX4 (Homo sapiens) (UniProt P36969); test: Inhibition of GPX4 (unknown origin) at 1 uM incubated for 1 hrs in presence of glutathione and glutathione reductase by microplate reader analysis
T1 sequence (whole entry): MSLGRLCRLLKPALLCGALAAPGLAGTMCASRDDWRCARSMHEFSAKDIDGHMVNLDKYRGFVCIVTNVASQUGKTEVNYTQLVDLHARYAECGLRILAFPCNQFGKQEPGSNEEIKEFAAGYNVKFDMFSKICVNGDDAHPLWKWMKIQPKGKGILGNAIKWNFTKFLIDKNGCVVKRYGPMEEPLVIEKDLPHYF

MCF-10A = test: Cytotoxicity against human MCF-10A cells assessed as inhibition of cell viability at 1 uM incubated for 72 hrs by MTT assay; assay type: toxicity, cell-based
HepG2 = test: Antiproliferative activity against human HepG2 cells assessed as inhibition of cell viability at 1 uM incubated for 72 hrs by MTT assay; assay type: functional, cell-based
[27] = molecular target: T2, Phospholipid hydroperoxide glutathione peroxidase GPX4 (Homo sapiens, UniProt P36969); test: Inhibition of GPX4 (unknown origin) incubated for 1 hrs in presence of glutathione and glutathione reductase by microplate reader analysis
T2 sequence (P36969 whole entry): T1 sequence (whole entry)

| Compound | Activity (MDA-MB-231 [1]) | Activity (MDA-MB-231 [2]) | Activity (MDA-MB-231 [3]) | IC50 (MDA-MB-468 [4]) | Activity [5] | IC50 (MDA-MB-231 [6]) | Activity (MDA-MB-231 [7]) | Activity (A549) | IC50 (MDA-MB-231 [8]) | Activity (MDA-MB-231 [9]) | IC50 (BT-549) | inhibition in vivo at 5 mg/kg (MDA-MB-231 [10]) | Activity [11] | inhibition (MDA-MB-231 [12]) | Activity (MDA-MB-231 [13]) | Activity (MDA-MB-468 [14]) | Activity (MDA-MB-231 [15]) | half-life at 1 µM [16] | Activity [17] | Activity (MDA-MB-231 [18]) | also measured |
| --- | --- | --- | --- | --- | --- | --- | --- | --- | --- | --- | --- | --- | --- | --- | --- | --- | --- | --- | --- | --- | --- |
| COc1cc(N(C(=O)CCl)c2ccc3c(c2)OCCO3)cc(OC)c1F | Active | Active | Active | 0.01 µM | Non-Toxic | 0.031 µM | Active | inactive | 0.018 µM | inactive | 0.075 µM | 50.4% | Toxic | Active | inactive | Active | Active | 3.34 min | Non-Toxic | inactive | inhibition (MDA-MB-231 [19]): Dose-Dependent Effect; Activity (MDA-MB-231 [20]): Active; Activity (MDA-MB-231 [21]): Active; Activity (MDA-MB-231 [22]): Dose-Dependent Effect; Activity (MDA-MB-231 [23]): Dose-Dependent Effect; Activity (MCF7): Active; Activity [24]: Toxic; Activity (Hep 3B2): inactive; inhibition in vivo at 10 mg/kg (MDA-MB-231 [25]): 73.1%; inhibition [26]: 98.8%; Activity (MCF-10A): Non-Toxic; Activity (HepG2): inactive; IC50 [27]: 0.12 µM |
| COc1cc(N(C(=O)CBr)c2ccc3c(c2)OCCO3)cc(OC)c1F | Active | Active | Active | 0.012 µM | Non-Toxic | 0.03 µM | Active | inactive | 0.018 µM | inactive | 0.034 µM | 18.9% | Toxic | Active | inactive | Active | Active | 0.79 min | Non-Toxic | inactive | inhibition (MDA-MB-231 [19]): Dose-Dependent Effect; Activity (MDA-MB-231 [20]): Active; Activity (MDA-MB-231 [21]): Active; Activity (MDA-MB-231 [22]): Dose-Dependent Effect; Activity (MDA-MB-231 [23]): Dose-Dependent Effect; Activity (MCF7): inactive; Activity [24]: Toxic; Activity (Hep 3B2): inactive; inhibition in vivo at 10 mg/kg (MDA-MB-231 [25]): 47.9%; inhibition [26]: 97.4%; Activity (MCF-10A): Non-Toxic; Activity (HepG2): inactive; IC50 [27]: 0.13 µM |
